Source: ChEMBL document CHEMBL3758118, “Effects of a novel carbocyclic analog of pyrrolo[2,3-d]pyrimidine nucleoside on pleiotropic induction of cell death in prostate cancer cells with different androgen responsiveness” (2016)
The source made the active and inactive calls. No cut-off for these calls is given here.

Key:
LNCaP [1] = assay: Induction of apoptosis in human LNCAP cells assessed as caspase3 level at 6 uM by western blot analysis; type: functional, cell-based
LNCaP [2] = assay: Induction of apoptosis in human LNCAP cells assessed as p21(Cip1) expression at 6 uM by western blotting analysis; type: functional, cell-based
LNCaP [3] = assay: Induction of apoptosis in human LNCAP cells assessed as cleaved PARP level at 6 uM by western blot analysis; type: functional, cell-based
DU-145 [4] = assay: Induction of apoptosis in human DU145 cells assessed as chromatin condensation at 6 uM after 24 hrs by transmission electron microscopic analysis; type: functional, cell-based
LNCaP [5] = assay: Induction of apoptosis in human LNCAP cells assessed as increase active caspase3 level at 6 uM after 24 hrs by western blotting analysis; type: functional, cell-based
LNCaP [6] = assay: Induction of apoptosis in human LNCAP cells assessed as chromatin condensation at 6 uM after 24 hrs by transmission electron microscopic analysis; type: functional, cell-based
DU-145 [7] = assay: Induction of apoptosis in human DU145 cells assessed as DNA fragmentation at 6 uM after 48 hrs in presence of 5 mM autophagy inhibitor 3-methyladenine by TUNEL assay; type: functional, cell-based
LNCaP [8] = assay: Antiproliferative activity against human LNCaP C4-2 cells assessed as cell viability at 6 uM after 24 hrs by MTT assay; type: functional, cell-based
LNCaP [9] = assay: Induction of apoptosis in human LNCAP cells assessed as formation of crescent shaped apoptotic bodies at 6 uM after 24 hrs by transmission electron microscopic analysis; type: functional, cell-based
DU-145 [10] = assay: Induction of apoptosis in human DU145 cells assessed as increase in p21(Cip1) expression at 6 uM after 48 hrs by western blotting analysis; type: functional, cell-based
LNCaP [11] = assay: Induction of apoptosis in human LNCaP C4-2 cells assessed as increase in p21(Cip1) expression at 9 uM after 48 hrs in presence of 100 uM AR inhibitor flutamide by western blotting analysis; type: functional, cell-based
LNCaP [12] = assay: Antiproliferative activity against human LNCAP cells assessed as cell viability at 6 uM after 24 hrs by MTT assay; type: functional, cell-based
LNCaP [13] = assay: Induction of apoptosis in human LNCaP C4-2 cells assessed as increase in cleaved PARP level at 9 uM after 48 hrs by western blot analysis; type: functional, cell-based
[14] = Cell cycle distribution in human LNCaP C4-2 cells assessed as accumulation at sub-G1 phase at 9 uM after 48 hrs by propidium iodide staining based flow cytometry; type: functional
LNCaP [15] = assay: Induction of apoptosis in human LNCAP cells assessed as increase in p21(Cip1) expression at 6 uM after 24 hrs by western blotting analysis; type: functional, cell-based
LNCaP [16] = assay: Antiproliferative activity against human LNCaP C4-2 cells assessed as cell viability at 6 uM after 48 hrs by MTT assay; type: functional, cell-based
DU-145 [17] = assay: Induction of apoptosis in human DU145 cells assessed as active caspase-3 level at 6 um after 24 hrs by western blotting analysis; type: functional, cell-based
LNCaP [18] = assay: Induction of apoptosis in human LNCaP C4-2 cells assessed as increase in caspase3 level at 9 uM after 48 hrs by western blotting analysis; type: functional, cell-based
LNCaP [19] = assay: Induction of apoptosis in human LNCaP C4-2 cells assessed as increase in caspase3 level at 9 uM after 48 hrs in presence of 100 uM AR inhibitor flutamide by western blot analysis; type: functional, cell-based
DU-145 [20] = assay: Induction of apoptosis in human DU145 cells assessed as increase in cleaved PARP level at 6 uM after 48 hrs by western blotting analysis; type: functional, cell-based
[21] = Cell cycle distribution in human LNCaP C4-2 cells assessed as accumulation at sub-G1 phase at 9 uM for 48 hrs in presence of 100 uM AR inhibitor flutamide by propidium-iodide staining based flow cytometry; type: functional
LNCaP [22] = assay: Induction of apoptosis in human LNCAP cells assessed as p21(Cip1) expression at 6 uM after 24 hrs cell pretreated with 100 uM AR inhibitor flutamide by western blot analysis; type: functional, cell-based
DU-145 [23] = assay: Induction of apoptosis in human DU145 cell assessed as p21(Cip1) expression at 6 uM after 24 hrs by western blotting analysis; type: functional, cell-based
LNCaP [24] = assay: Induction of apoptosis in human LNCAP cells assessed as caspase-3 expression at 6 uM after 24 hrs cell pretreated with 100 uM AR inhibitor flutamide by western blot analysis; type: functional, cell-based
DU-145 [25] = assay: Induction of apoptosis in human DU145 cells assessed as formation of crescent shaped apoptotic bodies at 6 uM after 24 hrs by transmission electron microscopic analysis; type: functional, cell-based
LNCaP [26] = assay: Induction of apoptosis in human LNCaP C4-2 cells assessed as increase in p21(Cip1) expression at 9 uM after 48 hrs by western blotting analysis; type: functional, cell-based
LNCaP [27] = assay: Induction of apoptosis in human LNCAP cells assessed as p21(Cip1) mRNA level at 6 uM in presence of 100 uM AR inhibitor flutamide by semiquantitative RT-PCR technique relative to control; type: functional
LNCaP [28] = assay: Induction of apoptosis in human LNCAP cells assessed as cleaved PARP expression at 6 uM after 24 hrs cell pretreated with 100 uM AR inhibitor flutamide by western blot analysis; type: functional, cell-based
LNCaP [29] = assay: Cell cycle distribution in human LNCAP cells assessed as accumulation at sub-G1 phase at 6 uM after 24 hrs in presence of 100 uM AR inhibitor flutamide by propidium-iodide staining based flow cytometry; type: functional
LNCaP [30] = assay: Induction of apoptosis in human LNCAP cells assessed as increase in cleaved PARP level at 6 uM after 24 hrs by western blotting analysis; type: functional, cell-based
LNCaP [31] = assay: Antiproliferative activity against human LNCaP C4-2 cells assessed as cell viability at 9 uM after 48 hrs by MTT assay; type: functional, cell-based
LNCaP [32] = assay: Induction of apoptosis in human LNCaP C4-2 cells assessed as increase p21(Cip1) mRNA level at 9 uM by semiquantitative RT-PCR technique relative to control; type: functional
DU-145 [33] = assay: Induction of apoptosis in human DU145 cells assessed as accumulation of autophagic vacuoles in cytoplasm at 6 uM after 24 hrs by fluorescence microscopic analysis; type: functional, cell-based
DU-145 [34] = assay: Induction of apoptosis in human DU145 cells assessed as cleaved PARP level at 6 uM after 24 hrs by western blotting analysis; type: functional, cell-based
LNCaP [35] = assay: Induction of apoptosis in human LNCAP cells assessed as caspase-8 expression at 6 uM after 24 hrs cell pretreated with 100 uM AR inhibitor flutamide by western blot analysis; type: functional, cell-based
LNCaP [36] = assay: Induction of apoptosis in human LNCAP cells assessed as increase in p21(Cip1) mRNA level at 6 uM by semiquantitative RT-PCR technique relative to control; type: functional
LNCaP [37] = assay: Induction of apoptosis in human LNCAP cells assessed as caspase-9 expression at 6 uM after 24 hrs cell pretreated with 100 uM AR inhibitor flutamide by western blot analysis; type: functional, cell-based
LNCaP [38] = assay: Induction of apoptosis in human LNCaP C4-2 cells assessed as increase in cleaved PARP level at 9 uM after 48 hrs in presence of 100 uM AR inhibitor flutamide by western blot analysis; type: functional, cell-based

NC(=O)c1c(Br)n(C2CCCC2)c2ncnc(N)c12
Activity (LNCaP [1]): inactive
Activity (LNCaP [2]): inactive
Activity (LNCaP [3]): inactive

NC(=O)c1c(Br)nc2n(C3CCCC3)cnc(N)c1-2
Activity (DU-145 [4]): inactive
Activity (LNCaP [5]): Active
Activity (LNCaP [6]): Active
Activity (DU-145 [7]): inactive
Activity (LNCaP [8]): inactive
Activity (LNCaP [9]): Active
Activity (DU-145 [10]): Active
Activity (LNCaP [11]): Active
Activity (LNCaP [12]): Active
Activity (LNCaP [13]): Active
Activity [14]: 30%
Activity (LNCaP [15]): Active
Activity (LNCaP [16]): Active
Activity (DU-145 [17]): inactive
Activity (LNCaP [18]): Active
Activity (LNCaP [19]): Active
Activity (DU-145 [20]): Active
Activity [21]: Active
Activity (LNCaP [22]): inactive
Activity (DU-145 [23]): inactive
Activity (LNCaP [24]): inactive
Activity (DU-145 [25]): inactive
Activity (LNCaP [26]): Active
fold change (FC) (LNCaP [27]): 0.38
Activity (LNCaP [28]): inactive
Activity (LNCaP [29]): inactive
Activity (LNCaP [30]): Active
Activity (LNCaP [31]): Active
fold change (FC) (LNCaP [32]): 23
Activity (DU-145 [33]): Active
Activity (DU-145 [34]): inactive
Activity (LNCaP [35]): inactive
fold change (FC) (LNCaP [36]): 56.98
Activity (LNCaP [37]): inactive
Activity (LNCaP [38]): Active
